Key:
Type in all cases: functional, cell-based
[1] = target: T1, Taste receptor type 2 member 7 (Homo sapiens) (UniProt Q9NYW3); experiment: (§1) Agonist activity at N-terminal rat ST3 receptor-fused full length human TAS2R7 stably expressed in HEK293T cells co-expressing Galpha16gust44 assessed as increase in intracellular calcium level by measuring deltaF/F0 ratio level at 0.02 mM by Fluo-4AM dye based FLIPR assay (reference value: 0.08 +/- 0.03)
T1 sequence (whole entry): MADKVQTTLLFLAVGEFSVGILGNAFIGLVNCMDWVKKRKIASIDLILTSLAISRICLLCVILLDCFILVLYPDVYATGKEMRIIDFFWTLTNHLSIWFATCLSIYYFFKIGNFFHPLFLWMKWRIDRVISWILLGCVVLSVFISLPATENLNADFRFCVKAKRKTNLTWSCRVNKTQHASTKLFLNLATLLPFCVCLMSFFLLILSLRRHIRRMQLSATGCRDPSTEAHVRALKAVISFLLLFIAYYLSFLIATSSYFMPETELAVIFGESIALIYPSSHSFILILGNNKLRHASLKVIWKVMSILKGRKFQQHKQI

[2] = target: T1, Taste receptor type 2 member 7 (Homo sapiens); experiment: Agonist activity at N-terminal rat ST3 receptor-fused full length human TAS2R7 transiently expressed in HEK293T cells co-expressing Galpha16gust44 assessed as increase in intracellular calcium level by measuring deltaF/F0 ratio level at 0.33 mM by Fluo-4AM dye based FLIPR assay
[3] = target: T1, Taste receptor type 2 member 7 (Homo sapiens); experiment: as §1, with “2.60” for “0.02”, “0.65” for “0.08”, “0.13)” for “0.03)”
[4] = target: T1, Taste receptor type 2 member 7 (Homo sapiens); experiment: as §1, with “0.01” for “0.02”, “0.09” for “0.08”, “0.04)” for “0.03)”
[5] = target: T1, Taste receptor type 2 member 7 (Homo sapiens); experiment: as §1, with “0.16” for “0.02”, “0.15” for “0.08”, “0.06)” for “0.03)”
[6] = target: T1, Taste receptor type 2 member 7 (Homo sapiens); experiment: as §1, with “0.04” for “0.02”
[7] = target: T1, Taste receptor type 2 member 7 (Homo sapiens); experiment: Agonist activity at N-terminal rat ST3 receptor-fused full length human TAS2R7 transiently expressed in HEK293T cells co-expressing Galpha16gust44 assessed as increase in intracellular calcium level by measuring deltaF/F0 ratio level at 0.16 mM by Fluo-4AM dye based FLIPR assay
[8] = target: T1, Taste receptor type 2 member 7 (Homo sapiens); experiment: Agonist activity at N-terminal rat ST3 receptor-fused full length human TAS2R7 transiently expressed in HEK293T cells co-expressing Galpha16gust44 assessed as increase in intracellular calcium level by measuring deltaF/F0 ratio level at 1.3 mM by Fluo-4AM dye based FLIPR assay
[9] = target: T1, Taste receptor type 2 member 7 (Homo sapiens); experiment: as §1, with “0.33” for “0.02”, “0.34” for “0.08”, “0.06)” for “0.03)”
[10] = target: T1, Taste receptor type 2 member 7 (Homo sapiens); experiment: Agonist activity at N-terminal rat ST3 receptor-fused full length human TAS2R7 transiently expressed in HEK293T cells co-expressing Galpha16gust44 assessed as increase in intracellular calcium level by measuring deltaF/F0 ratio level at 0.01 mM by Fluo-4AM dye based FLIPR assay
[11] = target: T1, Taste receptor type 2 member 7 (Homo sapiens); experiment: Agonist activity at N-terminal rat ST3 receptor-fused full length human TAS2R7 transiently expressed in HEK293T cells co-expressing Galpha16gust44 assessed as increase in intracellular calcium level by measuring deltaF/F0 ratio level at 0.02 mM by Fluo-4AM dye based FLIPR assay
[12] = target: T1, Taste receptor type 2 member 7 (Homo sapiens); experiment: Agonist activity at N-terminal rat ST3 receptor-fused full length human TAS2R7 transiently expressed in HEK293T cells co-expressing Galpha16gust44 assessed as increase in intracellular calcium level by measuring deltaF/F0 ratio level at 0.08 mM by Fluo-4AM dye based FLIPR assay
[13] = target: T1, Taste receptor type 2 member 7 (Homo sapiens); experiment: Agonist activity at N-terminal rat ST3 receptor-fused full length human TAS2R7 transiently expressed in HEK293T cells co-expressing Galpha16gust44 assessed as increase in intracellular calcium level by measuring deltaF/F0 ratio level at 0.04 mM by Fluo-4AM dye based FLIPR assay
[14] = target: T1, Taste receptor type 2 member 7 (Homo sapiens); experiment: as §1, with “1.3” for “0.02”, “0.53” for “0.08”, “0.1)” for “0.03)”
[15] = target: T1, Taste receptor type 2 member 7 (Homo sapiens); experiment: Agonist activity at N-terminal rat ST3 receptor-fused full length human TAS2R7 transiently expressed in HEK293T cells co-expressing Galpha16gust44 assessed as increase in intracellular calcium level by measuring deltaF/F0 ratio level at 2.60 mM by Fluo-4AM dye based FLIPR assay
[16] = target: T1, Taste receptor type 2 member 7 (Homo sapiens); experiment: Agonist activity at N-terminal rat ST3 receptor-fused full length human TAS2R7 transiently expressed in HEK293T cells co-expressing Galpha16gust44 assessed as increase in intracellular calcium level by measuring deltaF/F0 ratio level at 0.65 mM by Fluo-4AM dye based FLIPR assay
[17] = target: T1, Taste receptor type 2 member 7 (Homo sapiens); experiment: as §1, with “0.65” for “0.02”, “0.41” for “0.08”, “0.14)” for “0.03)”
[18] = target: T1, Taste receptor type 2 member 7 (Homo sapiens); experiment: as §1, with “0.08” for “0.02”, “0.1” for “0.08”, “0.04)” for “0.03)”
[19] = target: T1, Taste receptor type 2 member 7 (Homo sapiens); experiment: Agonist activity at N-terminal rat ST3 receptor-fused full length human TAS2R7 transiently expressed in HEK293T cells co-expressing Galpha16gust44 assessed as increase in intracellular calcium level by measuring deltaF/F0 ratio level by Fluo-4AM dye based FLIPR assay

| Ratio [1] | Ratio [2] | Ratio [3] | Ratio [4] | Ratio [5] | Ratio [6] | Ratio [7] | Ratio [8] | Ratio [9] | Ratio [10] | Ratio [11] | Ratio [12] | Ratio [13] | Ratio [14] | Ratio [15] | Ratio [16] | Ratio [17] | Ratio [18] | Activity [19] | Compound |
| --- | --- | --- | --- | --- | --- | --- | --- | --- | --- | --- | --- | --- | --- | --- | --- | --- | --- | --- | --- |
| 0.09 | 0.34 | 0.92 | 0.09 | 0.23 | 0.13 | 0.15 | 0.53 | 0.61 | 0.09 | 0.08 | 0.1 | 0.08 | 1.16 | 0.65 | 0.41 | 1.03 | 0.12 | Dose-dependent effect | CC(C)[C@@H]1CC[C@@H](C)C[C@H]1O |
|  |  |  |  |  |  |  |  |  |  |  |  |  |  |  |  |  |  | Dose-dependent effect | CC(C)[C@H]1CC[C@H](C)C[C@@H]1O |
